Experimental data published in patent publication US11873291B2, “Quinoline cGAS antagonist compounds” (ImmuneSensor Therapeutics, Inc., priority 2020, dated 2024).
Where two headings read alike, the source gives them in different places.

How the values were obtained:
[1] = tested on: cGAS activity in Reporter THP1 cell line; test: Cellular assay to measure cGAS activity: ISRE-Gaussia luciferase reporter THP1 cells transfected with ISD; format: cell-based; conditions: Homo sapiens
Method in brief: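 THP1 ISRE-Gaussia luciferase reporter cells (0.3×10^6/well) pre-incubated 5 min with compound serial dilutions, then lipofectamine-transfected with 2 μg/mL ISD (45 bp DNA) or mock. Secreted luciferase read 16 h later with 1 μM coelenterazine at pH 6.5; IC50 from fold increase over mock. Specificity counter-screen used 2 μg/mL poly(I:C) or Sendai virus 50 Unit/mL.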

[2] = molecular target: T1, recombinant human cGAS (aa147-522) (Homo sapiens, UniProt Q8N884); test: In vitro inhibition assay of cGAS activity (ATP consumption, KinaseGlo Max); format: biochemical
T1 construct: recombinant human cGAS (aa147-522); His6-SUMO (cleaved yes); made in house; host or cells: E. coli BL21/pLys
T1 sequence (Q8N884 147-522): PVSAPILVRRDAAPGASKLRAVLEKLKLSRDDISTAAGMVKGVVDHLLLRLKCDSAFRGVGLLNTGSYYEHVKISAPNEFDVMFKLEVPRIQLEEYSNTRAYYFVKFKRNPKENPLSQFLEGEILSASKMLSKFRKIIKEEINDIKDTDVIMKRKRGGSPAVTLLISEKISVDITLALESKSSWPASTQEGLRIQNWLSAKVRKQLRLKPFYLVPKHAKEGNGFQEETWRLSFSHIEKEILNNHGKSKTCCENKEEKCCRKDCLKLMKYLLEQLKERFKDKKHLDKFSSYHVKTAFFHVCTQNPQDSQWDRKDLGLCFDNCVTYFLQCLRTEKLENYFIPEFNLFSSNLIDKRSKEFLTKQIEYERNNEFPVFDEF
Method in brief: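 De-tagged recombinant human cGAS (aa147-522, 1.5 μg/mL) was incubated 20 min at 37 °C with herring testis DNA, 6.6 μM ATP and 0.1 mM GTP in Tris pH 7.5/MgCl2 buffer plus serial compound dilutions. Remaining ATP was read by KinaseGlo Max luminescence, and IC50 was fitted from % ATP consumption versus log concentration.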

[3] = THP-1, Table 4, Gaussia luciferase
[4] = Table 2, read-out: cGAS Inhibition Results IC50
[5] = Table 3, read-out: cGAS Inhibition Results IC50
[6] = THP-1, untitled table after Table 4 (continuation)

Structure (SMILES)	IC50 [1, 3]	IC50 [2, 4]	IC50 [2, 5]	IC50 [1, 6]
O=C(O)[C@@H]1CCCN1c1cc(-c2cn[nH]c2)c2ccc(Cl)c(Cl)c2n1 [I-435]	2000 to 10000 nM	< 2000 nM		
COC(=O)C(C)COC[C@@H]1CCCN1c1cc(-n2ccnc2)c2ccc(Cl)c(Cl)c2n1 (stereo partly shown) [I-720]	< 2000 nM		2000 to 30000 nM	
O=C(O)CCOC[C@@H]1CCCN1c1cc(-n2ccnc2)c2ccc(Cl)c(Cl)c2n1 [I-664, (S)-3-((1-(7,8-dichloro-4-(1H-imidazol-1-yl)quinolin-2-yl)pyrrolidin-2-yl)methoxy)propanoic acid]	< 2000 nM		< 2000 nM	
COC(=O)COC[C@@H]1CN(c2cc(-c3cn[nH]c3)c3ccc(Cl)c(Cl)c3n2)CCO1 [I-751]	2000 to 10000 nM		< 2000 nM	
O=C(O)Cc1cccc(CNc2cc(-n3ccnc3)c3ccc(Cl)c(Cl)c3n2)c1 [I-844]			< 2000 nM	< 2000 nM
O=C(O)CCOC[C@@H]1CN(c2cc(-c3cn[nH]c3)c3ccc(Cl)c(Cl)c3n2)CCO1 [I-741]	2000 to 10000 nM		< 2000 nM	
CC(C)(C)OC(=O)[C@@H]1[C@@H](O)CCN1c1cc(-n2ccnc2)c2ccc(Cl)c(Cl)c2n1 [I-645, tert-butyl (2S,3S)-1-(7,8-dichloro-4-(1H-imidazol-1-yl)quinolin-2-yl)-3-hydroxypyrrolidine-2-carboxylate]	< 2000 nM		2000 to 30000 nM	
COC(=O)CCOC[C@@H]1CCCN1c1cc(-c2cn[nH]c2)c2ccc(Cl)c(Cl)c2n1 [I-671]	< 2000 nM		< 2000 nM	
O=C(O)CCOCCN(c1cc(-n2ccnc2)c2ccc(Cl)c(Cl)c2n1)C1CC1 [I-834]			< 2000 nM	< 2000 nM
O=C(O)CCOCCN(CCOCCC(=O)O)c1cc(-n2ccnc2)c2ccc(Cl)c(Cl)c2n1 [I-839]			< 2000 nM	> 10000 nM
CN(CCOc1cccc(CC(=O)O)c1)c1cc(-n2ccnc2)c2ccc(Cl)c(Cl)c2n1 [I-843]			< 2000 nM	2000 to 10000 nM
COc1c(Cl)ccc2c(-n3ccnc3)cc(N3CCC[C@H]3COCCC(=O)O)nc12 [I-860]			< 2000 nM	> 10000 nM
C[C@H]1CC[C@@H](COCCC(=O)O)N1c1cc(-n2ccnc2)c2ccc(Cl)c(Cl)c2n1 [I-810]			< 2000 nM	< 2000 nM
COc1ccc(-c2cc(-n3ccnc3)c3ccc(Cl)c(Cl)c3n2)cc1COCCC(=O)O [I-884]			< 2000 nM	< 2000 nM
O=C(O)CCOC[C@@H]1C[C@@H](N2CCOCC2)CN1c1cc(-n2ccnc2)c2ccc(Cl)c(Cl)c2n1 [I-799]			< 2000 nM	> 10000 nM
C[C@@]1(COCCC(=O)O)CCCN1c1cc(-n2ccnc2)c2ccc(Cl)c(Cl)c2n1 [I-696]	< 2000 nM		< 2000 nM	

Structure (SMILES)	IC50 [1, 3]	IC50 [2, 4]	IC50 [2, 5]	IC50 [1, 6]
O=C(O)COC[C@@H]1C[C@H](F)CN1c1cc(-n2ccnc2)c2ccc(Cl)c(Cl)c2n1 [I-706]	< 2000 nM		< 2000 nM	
O=C(O)CCCCOC[C@@H]1CCCN1c1cc(-n2ccnc2)c2ccc(Cl)c(Cl)c2n1 [I-676]	< 2000 nM		< 2000 nM	
O=C(O)[C@@H]1C[C@@H](F)CN1c1cc(-n2ccnc2)c2ccc(Cl)c(Cl)c2n1 [I-322]	> 10000 nM	< 2000 nM		
O=C(O)C[C@@H]1CCCN1c1cc(-n2ccnc2)c2ccc(Cl)c(Cl)c2n1 [I-443]	2000 to 10000 nM	< 2000 nM		
O=C(O)COC[C@H](O)[C@@H]1CCCN1c1cc(-n2ccnc2)c2ccc(Cl)c(Cl)c2n1 [I-726, 2-((R)-2-((S)-1-(7,8-dichloro-4-(1H-imidazol-1-yl)quinolin-2-yl)pyrrolidin-2-yl)-2-hydroxyethoxy)acetic acid]	> 10000 nM		< 2000 nM	
COC(=O)[C@@H]1[C@@H](O)CCN1c1cc(-c2cn[nH]c2)c2ccc(Cl)c(Cl)c2n1 [I-598]	< 2000 nM		2000 to 30000 nM	
O=C(O)COC[C@@H]1CCCN(c2cc(-n3ccnc3)c3ccc(Cl)c(Cl)c3n2)C1 [I-744]	< 2000 nM		< 2000 nM	
CC(COC[C@@H]1CCCN1c1cc(-n2ccnc2)c2ccc(Cl)c(Cl)c2n1)C(=O)O (stereo partly shown) [I-719]	< 2000 nM		< 2000 nM	
O=C(O)Cc1ccccc1OC[C@@H]1CCCN1c1cc(-n2ccnc2)c2ccc(Cl)c(Cl)c2n1 [I-734]	< 2000 nM		< 2000 nM	
N#CNC(=O)COC[C@@H]1CCCN1c1cc(-n2ccnc2)c2ccc(Cl)c(Cl)c2n1 [I-762]			< 2000 nM	> 10000 nM
O=C(O)CCOCCOc1cc(-n2ccnc2)c2ccc(Cl)c(Cl)c2n1 [I-828, 3-(2-((7,8-dichloro-4-(1H-imidazol-1-yl)quinolin-2-yl)oxy)ethoxy)propanoic acid]			2000 to 30000 nM	> 10000 nM
O=C(O)CCC(=O)NNc1cc(-n2ccnc2)c2ccc(Cl)c(Cl)c2n1 [I-759]			< 2000 nM	> 10000 nM
O=C(O)COC[C@H]1CCCN(c2cc(-n3ccnc3)c3ccc(Cl)c(Cl)c3n2)C1 [I-743]	< 2000 nM		< 2000 nM	
COC(=O)[C@@H]1C[C@H](F)CN1c1cc(-n2ccnc2)c2ccc(Cl)c(Cl)c2n1 [I-575]	2000 to 10000 nM		2000 to 30000 nM	
O=C(O)CCOCCN(CCO)c1cc(-n2ccnc2)c2ccc(Cl)c(Cl)c2n1 [I-838]			< 2000 nM	> 10000 nM
NC(=O)[C@@H]1CCCN1c1cc(-n2ccnc2)c2ccc(Cl)c(Cl)c2n1 [I-448]	> 10000 nM	< 2000 nM		
